Source: PubChem BioAssay (NCI)
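In this assay, cells in 96-well plates receive the compound at five concentrations for 48 hours. Endpoints are linearly interpolated between the surrounding concentrations. GI50 is the concentration that inhibits growth by half. The concentration for full growth arrest is given as TGI.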

Legend:
Assay in all cases: growth of human tumour cells (NCI), 48 h
CAKI-1 renal = test system: CAKI-1 renal
HT29 colon = test system: HT29 colon
SK-MEL-28 melanoma = test system: SK-MEL-28 melanoma
MALME-3M melanoma = test system: MALME-3M melanoma
COLO 205 colon = test system: COLO 205 colon
HCT-116 colon = test system: HCT-116 colon
TK-10 renal = test system: TK-10 renal
OVCAR-3 ovarian = test system: OVCAR-3 ovarian
UO-31 renal = test system: UO-31 renal
HCT-15 colon = test system: HCT-15 colon

SMILES	TGI (CAKI-1 renal)	TGI (HT29 colon)	TGI (SK-MEL-28 melanoma)	TGI (MALME-3M melanoma)	TGI (COLO 205 colon)	TGI (HCT-116 colon)	TGI (TK-10 renal)	TGI (OVCAR-3 ovarian)	TGI (UO-31 renal)	TGI (HCT-15 colon)	GI50 (CAKI-1 renal)	GI50 (HT29 colon)	GI50 (SK-MEL-28 melanoma)	GI50 (MALME-3M melanoma)	GI50 (COLO 205 colon)	GI50 (HCT-116 colon)	GI50 (TK-10 renal)	GI50 (OVCAR-3 ovarian)	GI50 (UO-31 renal)	GI50 (HCT-15 colon)
COP(=O)(/C=C/c1cc(C(=O)OCc2ccccc2)n(S(=O)(=O)c2ccccc2)c1)OC	> 100 µM	> 100 µM	> 100 µM	> 100 µM	> 100 µM	> 100 µM	> 100 µM	> 100 µM	> 100 µM	> 100 µM										
CCN(CC)CCN(C(=Nc1ccccc1)N1CCOCC1)c1ccccc1	> 100 µM	> 100 µM	> 100 µM	> 100 µM	> 100 µM	89.8 µM	> 100 µM	> 100 µM	> 100 µM	> 100 µM										
Cc1cn(C2CC(O)C(CO)O2)c(=O)[nH]c1=O (stereo not given)	4450 µM	> 5000 µM	> 5000 µM	> 4900 µM	> 5000 µM	> 4240 µM	> 5000 µM	> 2650 µM	> 5000 µM	> 5000 µM										
CS(=O)c1ncc2c(n1)-c1ccccc1OC2 (stereo not given)	> 100 µM	> 100 µM	> 100 µM	> 100 µM	> 100 µM	> 100 µM	> 100 µM	> 100 µM	> 100 µM	> 100 µM										
CC(=O)Nc1nc(C#N)[nH]c1C#N	> 100 µM	> 100 µM	> 100 µM	> 100 µM	> 100 µM	> 100 µM	> 100 µM	> 100 µM	> 100 µM	> 100 µM										
Cc1cccc2c1CC1(C2)Cc2c(C)cccc2C1=O (stereo not given)	48.6 µM	97.2 µM	56.5 µM	49.7 µM	29.7 µM	35.7 µM	92.1 µM	51.1 µM	> 100 µM	> 100 µM										
O=C(/C=C/c1ccc2c(c1)OCO2)CC(=O)C(=O)c1c[nH]c2ccccc12	> 100 µM	> 100 µM	> 100 µM	> 100 µM	> 100 µM	> 100 µM	> 100 µM	> 100 µM	64.1 µM	> 100 µM										
CSC(=S)N/N=C(\C)c1ccc(S(=O)(=O)N(C)c2ccccc2)cc1	> 100 µM	> 100 µM	> 100 µM	22.5 µM	> 100 µM	> 100 µM	> 100 µM	> 100 µM	> 100 µM	> 100 µM										
COc1cccc(CCCNC(=O)Cc2cc(OC)c(OC)cc2CO)c1	> 100 µM	> 100 µM	> 100 µM	> 100 µM	> 100 µM	> 100 µM	> 100 µM	> 100 µM	> 100 µM	> 100 µM										
Cc1cc(N(CCOS(C)(=O)=O)CCOS(C)(=O)=O)ccc1C=O	1.25 µM	> 100 µM	31.3 µM	28.1 µM	4.39 µM	> 100 µM	> 100 µM	70.9 µM	35.1 µM	71.8 µM										
NS(=O)(=O)c1cc2c(cc1Cl)NC(CCC(=O)O)=NS2(=O)=O	> 100 µM	> 100 µM	> 100 µM	> 100 µM	> 100 µM	> 100 µM	> 100 µM	> 100 µM	> 100 µM	> 100 µM										
CC1=C[C@@H]2Cc3nc4cc(Cl)ccc4c(N)c3[C@H](C1)C2	17.4 µM	13.2 µM	25.1 µM	24.6 µM	2.92 µM	14.5 µM	19.5 µM	24.2 µM	17.7 µM	24.3 µM										
CCCC(=O)OC1CC(n2cc(F)c(=O)[nH]c2=O)OC1COP(=O)(OCC(Cl)(Cl)Cl)OCC(Cl)(Cl)Cl (stereo not given)	> 31.6 µM	41.3 µM	> 62.4 µM	> 100 µM	59 µM	> 51.1 µM	> 100 µM	38.8 µM	> 100 µM	> 100 µM										
O=[N+]([O-])C(/C=C(\Cl)n1nnc2ccccc21)=C(/Cl)n1nnc2ccccc21	> 100 µM	> 100 µM	> 100 µM	> 100 µM	> 100 µM	> 100 µM	> 100 µM	> 100 µM	> 100 µM	> 100 µM										
Oc1ccc([I+]c2ccccc2)cc1O	> 100 µM	> 100 µM	> 100 µM	> 100 µM	> 100 µM	> 100 µM	> 100 µM	> 100 µM	> 100 µM	> 100 µM										
CCC1(CC)C(=O)NN(C(=O)c2ccccc2)C1=O	> 100 µM	> 100 µM	> 100 µM	> 100 µM	> 100 µM	> 100 µM	> 100 µM	> 100 µM	> 100 µM	> 100 µM										
COC(=O)C1CCC(=O)N1C(c1ccc(OC)cc1)c1ccc2c(c1)OCO2 (stereo not given)	> 100 µM	> 100 µM	> 100 µM	> 100 µM	> 100 µM	> 100 µM	> 100 µM	> 100 µM	> 100 µM	> 100 µM										
Cc1c(S(=O)(=O)c2ccccc2)c(N)n(CCN(C)C)c1C	> 100 µM	> 100 µM	> 100 µM	> 100 µM	> 100 µM	> 100 µM	> 100 µM	> 100 µM	> 100 µM	> 100 µM										

SMILES	TGI (CAKI-1 renal)	TGI (HT29 colon)	TGI (SK-MEL-28 melanoma)	TGI (MALME-3M melanoma)	TGI (COLO 205 colon)	TGI (HCT-116 colon)	TGI (TK-10 renal)	TGI (OVCAR-3 ovarian)	TGI (UO-31 renal)	TGI (HCT-15 colon)	GI50 (CAKI-1 renal)	GI50 (HT29 colon)	GI50 (SK-MEL-28 melanoma)	GI50 (MALME-3M melanoma)	GI50 (COLO 205 colon)	GI50 (HCT-116 colon)	GI50 (TK-10 renal)	GI50 (OVCAR-3 ovarian)	GI50 (UO-31 renal)	GI50 (HCT-15 colon)
CCN(CC)CCn1c(=O)c2cccnc2n2c3c(=O)n(C)c(=O)n(C)c3nc12	> 100 µM	> 100 µM	> 100 µM	> 100 µM	> 100 µM	> 100 µM	57.4 µM	> 100 µM	> 100 µM	27.3 µM										
O=c1c2sc(=S)n(-c3ccc(F)cc3)c2ncn1/N=C/c1ccc(F)cc1F	32.9 µM	> 100 µM	> 100 µM	41.6 µM	> 100 µM	> 100 µM	40 µM	61.5 µM	89.8 µM	> 100 µM										
CC1=NN(c2cccc(Cl)c2)C2(C1=C/C=C/c1ccccc1)C(Cl)C(=O)N2c1nc2ccccc2s1 (stereo not given)	> 49.8 µM	> 100 µM	> 100 µM	> 100 µM	> 100 µM	> 86.1 µM	> 100 µM	> 80.9 µM	> 61.2 µM	> 82.1 µM										
CC1=NS(=O)(=O)c2ccccc2N1	> 100 µM	> 100 µM	> 100 µM	> 100 µM	> 100 µM	> 100 µM	> 100 µM	> 100 µM	> 100 µM	> 100 µM										
Cc1cc(C(=O)CCCCOc2ccc(C3=NCCO3)cc2)c(C)n1C	> 100 µM	> 100 µM	83.1 µM	> 100 µM	> 100 µM	> 100 µM	> 100 µM	> 100 µM	> 100 µM	> 100 µM										
CCNC(=O)Cc1nc2c(N)ncnc2n1C1OC(CO)C(O)C1O (stereo not given)	> 100 µM	> 100 µM	> 100 µM	> 100 µM	> 100 µM	> 100 µM	> 100 µM	> 100 µM	> 100 µM	> 100 µM										
COc1ccc2c(c1)/C(=C\c1c(Cl)nc3sc(C)cn13)C(=O)N2	17.1 µM	12.7 µM	25.5 µM	19.9 µM	9.45 µM	14.1 µM	19.1 µM	8.83 µM	19 µM	22.4 µM										
CCCCC(C(=O)NCCNC(=O)CCC(=O)N(C)O)C(=O)NCCNC(=O)CCC(=O)N(C)O	> 100 µM	> 100 µM	> 100 µM	> 100 µM	> 100 µM	> 100 µM	> 100 µM	> 100 µM	> 100 µM	> 100 µM										
NC1=NCC(CN2CCOCC2)O1 (stereo not given)	> 100 µM	> 100 µM	> 100 µM	> 100 µM	> 100 µM	> 100 µM	> 100 µM	> 100 µM	> 100 µM	> 100 µM										
CO[C@H]1/C=C(/C)CCC[C@H](C)[C@H](O)[C@@H](C)C(=O)C(C)(C)[C@@H](O)CC(=O)O[C@@H]1/C(C)=C/c1csc(C)n1	> 100 µM	0.525 µM	> 100 µM	> 100 µM	0.0755 µM	> 100 µM	> 100 µM	0.111 µM	> 100 µM	> 100 µM	0.0238 µM	< 0.01 µM	0.0445 µM	0.017 µM	0.0159 µM	< 0.0129 µM	0.0366 µM	< 0.0161 µM	0.0334 µM	< 0.0128 µM
C=CCSc1nnc2cc(CN3CCCC3)c(-c3ccc(Cl)cc3)nn12	77.5 µM	32.5 µM	47.8 µM	43.2 µM	34.5 µM	28.5 µM	43.7 µM	36 µM	30.4 µM	45.1 µM										
CCOP(=O)(OCC)C(c1ccc(F)cc1)N(C(=O)NC(F)(F)F)c1ccc(OC)cc1 (stereo not given)	> 100 µM	> 100 µM	> 100 µM	> 100 µM	> 100 µM	> 100 µM	> 100 µM	> 100 µM	> 100 µM	> 100 µM										
NS(=O)(=O)c1cc(Cl)c(NC(=S)NC(=O)Nc2ccc(Cl)c(Cl)c2)c(Cl)c1	> 100 µM	> 100 µM	> 100 µM	> 100 µM	33.6 µM	> 100 µM	> 100 µM	> 100 µM	> 100 µM	> 100 µM										
CSC(=S)N(C)C	> 100 µM	> 100 µM	> 100 µM	> 100 µM	> 100 µM	> 100 µM	> 100 µM	> 100 µM	> 100 µM	> 100 µM										
COc1cccc2c(=O)oc(-c3ccc(C(C)(C)C)cc3)nc12	> 100 µM	> 100 µM	> 100 µM	> 100 µM	> 100 µM	> 100 µM	> 100 µM	81.8 µM	> 100 µM	> 100 µM										
O=[N+]([O-])c1ccc(Oc2c(Cl)cc(S(=O)(=O)/N=C(\NO)Nc3ccc(Cl)cc3)cc2Cl)cc1	18.9 µM	27.9 µM	28.7 µM	29 µM	29.9 µM	22.6 µM	23.2 µM	19.4 µM	19.2 µM	24.5 µM										
N=C(N)SCc1ccc2c(c1)Sc1ccccc1O2	19.7 µM	8.54 µM	38.7 µM	23.1 µM	17.8 µM	22.3 µM	14.1 µM	16.9 µM	10.6 µM	21.7 µM										
Cc1ccc(S(=O)(=O)N/N=C/C2(c3ccccc3)c3ccccc3-c3ccccc32)cc1	62.4 µM	26.3 µM	28.6 µM	19.2 µM	13.8 µM	20.3 µM	98.5 µM	20.8 µM	18.6 µM	22.4 µM										
